How the values were obtained:
[1] = system: Q7 cells (ST HDH Q7/7; immortalized mouse striatal cells); assay: Q7 Cystine Deprivation cell survival (rescue) assay; format: cell-based; settings: Q7 cells, cystine-free medium, 18 h, Cell Titer Glo, 50% relative viability vs Vitamin K2 (1 micromolar), read-out: Q7 Cystine Deprivation Survival EC50
Procedure, shortened: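 Cells were seeded at 3,000/well and allowed to attach for 5 h at 33 °C. Wells were then washed twice with PBS and switched to cystine-free DMEM containing FBS, 4 mM L-glutamine, 1 mM pyruvate and 30 mg/L methionine to induce ferroptotic death. Compounds were scored for survival rescue.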

[2] = molecular target: T1, CYP3A4 (Homo sapiens, UniProt P08684); assay: CYP450 Inhibition Assay 2 (pooled human liver microsomes, 5 concentrations); format: in vitro ADME; settings: Table 3, HLM 0.05 mg protein/mL, 10 min reaction; for IC50 at 10 min: human, pooled human liver microsomes
T1 construct: from tissue; host or cells: pooled human liver microsomes
Experimental: In an alternative experimental design, test compounds were evaluated at 5 concentrations in a 96 well assay plate. Initial combination with pooled human liver microsomes (0.05 mg protein/mL) was followed by a 5 minute incubation. […] The assay plate was incubated for an additional 30 minutes before the reaction was initiated with the addition of NADPH. After 10 minutes of reaction time, the reaction was quenched and samples were analyzed in a similar manner as described above.

[3] = system: Q7 cells (ST HDH Q7/7; immortalized mouse striatal cells); assay: Q7 RSL3 challenge cell survival (rescue) assay; format: cell-based; settings: Q7 cells, RSL3 2 micromolar, 18 h, Cell Titer Glo, read-out: Q7 RSL3 Survival EC50
Description: In neuronal cells excess extracellular glutamate inhibits the cystine/glutamate antiporter leading to intracellular cysteine depletion, GSH depletion, reactive oxygen species (ROS) production and cell death, a phenomenon termed oxidative glutamate toxicity, oxytosis, or ferroptosis. […] Q7 cells (ST HDH Q7/7; immortalized mouse striatal cells) challenged with cystine-free media or the selective, irreversible GPX4 inhibitor, methyl (1S,3R)-2-(2-chloroacetyl)-1-(4-(methoxycarbonyl)phenyl)-2,3,4,9-tetrahydro-1H-pyrido[3,4-b]indole-3-carboxylate (hereafter referred to as RSL3), recapitulate this phenotype, as do normal human fibroblasts (NHF) challenged with RSL3. An initial screen was performed to identify compounds effective in rescuing Q7 and/or NHF cells from death resulting from cystine deprivation or RSL3 challenge. This method is further described in Yonezawa et al., J. Neurochem 67, 566-573 (1996), Li et al., J Neurosci., 23, 5816-5826 (2003), Yang and Stockwell, Chem Biol., 15: 234-45 (2008), and Yang et al., Cell 156, 317-331 (2014). See also Hinman A, Holst C R, Latham J C, et al. Vitamin E hydroquinone is an endogenous regulator of ferroptosis via redox control of 15-lipoxygenase. PLoS One. 2018; 13(8):e0201369. Published 2018 Aug. 15. doi:10.1371/journal.pone.0201369; and Kahn-Kirby A H, Amagata A, Maeder C I, et al. Targeting ferroptosis: A novel therapeutic strategy for the treatment of mitochondrial disease-related epilepsy. PLoS One. 2019; 14(3):e0214250. Published 2019 Mar. 28. doi:10.1371/journal.pone.0214250.
DMEM (Catalog no. 11995-040), DMEM without Cystine (Catalog no. 21013-024), DMEM without Glucose (Catalog A1443001), PBS (Phosphate buffered saline), Penicillin-streptomycin mix, L-Glutamine, Glucose, Phenol Red, and Pyruvate were purchased from ThermoFisher Scientific (Gibco). Fetal Bovine Serum was obtained from Mediatech, Inc., or Sigma Aldrich. Mouse striatum derived ST HDH Q7/7 (Q7) and normal human skin fibroblast (NHF, product number GM21811) cells were obtained from the Coriell Institute. Methionine and Vitamin K2 were purchased from Sigma Aldrich. RSL3 was synthesized as previously described (see e.g. US Patent Publication US2010/0081654). Cell Titer Glo 2.0 was purchased from Promega. Q7 cell culture medium (Q7 growth medium) was made by combining 50 mL Fetal Bovine Serum, 100 U/mL penicillin, and 100 microgram/mL streptomycin; DMEM was added to make the volume up to 500 mL. Assay medium for the Cystine Deprivation assay was prepared by combining 50 mL Fetal Bovine Serum, 100 U/mL penicillin, 100 microgram/mL streptomycin, 4 mM L-Glutamine, 1 mM Pyruvate and 30 mg/L Methionine; DMEM without Cystine was added to make the volume up to 500 mL. NHF cell culture medium (NHF growth medium) was made by combining 50 mL Fetal Bovine Serum, 100 U/mL penicillin, 100 microgram/mL streptomycin, 2.8 mL 20% Glucose solution (final concentration 6 mM), L-glutamine (final concentration 2 mM), phenol red (final concentration 15 mg/L); DMEM without Glucose was added to make the volume up to 500 mL. Assay medium for the RSL3 challenge assay was identical to Growth medium. While not in use during the course of the experiments, these solutions were stored at 4° C. The cells were grown in 150-cm^2 tissue culture-treated flasks. Every third or fourth day, the cells were sub-cultured by trypsinization and re-seeded at a cell density of 600,000 (Q7) or 300,000 (NHF) cells per flask.
Q7 or NHF cells were cultured routinely as described herein. For 384-well cell survival assays, cells were seeded in clear bottom, black wall 384-well tissue culture-treated polystyrene plates by re-suspending a cell suspension at a density of 50,000 cells/mL in growth medium, then dispensing 60 microliters of cell suspension per well using either an electronic multichannel pipette or a Multidrop™ Combi Reagent Dispenser (ThermoFisher Scientific), corresponding to 3,000 cells/well. […]

[4] = system: normal human fibroblasts (NHF, GM21811); assay: NHF GM21811 RSL3 challenge cell survival (rescue) assay; format: cell-based; settings: Fibroblast, NHF cells, RSL3 2 micromolar, 48 h, Cell Titer Glo, read-out: NHF GM21811 RSL3 Survival EC50
Procedure, shortened: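 Q7 (33° C.) or NHF (37° C.) cells, 3,000/well, attached 5 h, then test compounds at varying final concentrations followed within 15 min by RSL3 (2 micromolar final); 0.3% DMSO. Assay medium identical to growth medium.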

T1 sequence (P08684 whole entry): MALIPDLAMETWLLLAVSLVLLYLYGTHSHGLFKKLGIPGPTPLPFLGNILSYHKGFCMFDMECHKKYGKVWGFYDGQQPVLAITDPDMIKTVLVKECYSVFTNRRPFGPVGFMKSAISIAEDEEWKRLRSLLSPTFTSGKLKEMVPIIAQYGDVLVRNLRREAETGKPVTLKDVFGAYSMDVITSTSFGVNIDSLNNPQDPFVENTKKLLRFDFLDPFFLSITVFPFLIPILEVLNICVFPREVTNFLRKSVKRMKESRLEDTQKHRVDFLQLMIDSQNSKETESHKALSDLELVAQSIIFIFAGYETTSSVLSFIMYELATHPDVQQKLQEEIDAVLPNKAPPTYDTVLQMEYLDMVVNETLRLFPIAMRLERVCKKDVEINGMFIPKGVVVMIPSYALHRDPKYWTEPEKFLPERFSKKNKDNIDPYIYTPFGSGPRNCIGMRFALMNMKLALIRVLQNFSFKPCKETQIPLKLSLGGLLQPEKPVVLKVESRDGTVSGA

| Structure (SMILES) | IC50 [2] [µM] | IC50 at 10 min [2] [µM] | EC50 [1] [nM] | EC50 [3] [nM] | EC50 [4] [nM] |
| --- | --- | --- | --- | --- | --- |
| CC1=C(C(C)c2ccccn2)C(=O)c2ccccc2C1=O (centres unmarked) [Example 24, 2-methyl-3-(1-(pyridin-2-yl)ethyl)naphthalene-1,4-dione] | 20.1 |  | < 50 |  |  |
| CC1=C(Cc2ccc(C(F)(F)F)cn2)C(=O)c2c(F)cccc2C1=O [Example 51, 5-fluoro-2-methyl-3-((5-(trifluoromethyl)pyridin-2-yl)methyl)naphthalene-1,4-dione] |  |  | < 50 | < 50 | < 50 |
| CC1=C(Cc2ccc(C(F)(F)F)cn2)C(=O)c2c(F)ccc(F)c2C1=O [Example 52, 5,8-difluoro-2-methyl-3-((5-(trifluoromethyl)pyridin-2-yl)methyl)naphthalene-1,4-dione] |  |  | < 50 | < 50 | < 50 |
| CC1=C(Cc2ccc(C(=O)NC3CCCC3)cn2)C(=O)c2ccccc2C1=O [Example 100, N-cyclopentyl-6-((3-methyl-1,4-dioxo-1,4-dihydronaphthalen-2-yl)methyl)nicotinamide] |  | ≥ 50 | 50 to 250 |  |  |
| CCN(C(=O)c1ccc(CC2=C(C)C(=O)c3ccccc3C2=O)nc1)C(C)C [Example 102, N-ethyl-N-isopropyl-6-((3-methyl-1,4-dioxo-1,4-dihydronaphthalen-2-yl)methyl)nicotinamide] | 8.8 |  | < 50 |  |  |
| CC1=C(Cc2ccc(C(=O)NC3(C)CCC3)cn2)C(=O)c2ccccc2C1=O [Example 103, 6-((3-methyl-1,4-dioxo-1,4-dihydronaphthalen-2-yl)methyl)-N-(1-methylcyclobutyl)nicotinamide] | 41.5 |  | 250 to 1000 |  |  |
| CC1=C(Cc2ccc(C(=O)N(C)C(C)C)cn2)C(=O)c2ccccc2C1=O [Example 104, N-isopropyl-N-methyl-6-((3-methyl-1,4-dioxo-1,4-dihydronaphthalen-2-yl)methyl)nicotinamide] | 20.7 |  | < 50 |  |  |
| CC1=C(Cc2ccc(C(=O)NCC3CC3)cn2)C(=O)c2ccccc2C1=O [Example 105, N-(cyclopropylmethyl)-6-((3-methyl-1,4-dioxo-1,4-dihydronaphthalen-2-yl)methyl)nicotinamide] |  | ≥ 50 | 50 to 250 |  |  |
| CCCC1=C(Cc2cc(C)c(F)cn2)C(=O)c2ccccc2C1=O [Example 113, 2-((5-fluoro-4-methylpyridin-2-yl)methyl)-3-propylnaphthalene-1,4-dione] |  |  | < 50 | < 50 | < 50 |
| CCCC1=C(Cc2ccc(F)cn2)C(=O)c2ccccc2C1=O [Example 116, 2-((5-fluoropyridin-2-yl)methyl)-3-propylnaphthalene-1,4-dione] |  |  | < 50 | < 50 | < 50 |
| CCCC1=C(Cc2ccc(F)c(C)n2)C(=O)c2ccccc2C1=O [Example 118, 2-((5-fluoro-6-methylpyridin-2-yl)methyl)-3-propylnaphthalene-1,4-dione] |  |  | < 50 | < 50 | < 50 |
| Cc1cc(CC2=C(C3CC3)C(=O)c3ccccc3C2=O)ncc1F [Example 120, 2-cyclopropyl-3-((5-fluoro-4-methylpyridin-2-yl)methyl)naphthalene-1,4-dione] |  |  | < 50 | < 50 | < 50 |
| Cc1ccc(CC2=C(CCC3COC3)C(=O)c3ccccc3C2=O)nc1 [Example 122, 2-((5-methylpyridin-2-yl)methyl)-3-(2-(oxetan-3-yl)ethyl)naphthalene-1,4-dione] |  |  | < 50 | < 50 | 50 to 250 |

Continued, in another order:

| IC50 [2] [µM] | IC50 at 10 min [2] [µM] | Structure (SMILES) | EC50 [1] [nM] | EC50 [3] [nM] | EC50 [4] [nM] |
| --- | --- | --- | --- | --- | --- |
| 37.2 |  | CC1=C(Cc2cc(C(F)(F)F)ccn2)C(=O)c2ccccc2C1=O [Example 9, 2-methyl-3-((4-(trifluoromethyl)pyridin-2-yl)methyl)naphthalene-1,4-dione] | < 50 |  |  |
| 11.9 |  | O=C1C(Cc2ccc(C(F)(F)F)cn2)=C(C2CC2)C(=O)c2ccccc21 [Example 27, 2-cyclopropyl-3-((5-(trifluoromethyl)pyridin-2-yl)methyl)naphthalene-1,4-dione] | < 50 |  |  |
|  | ≥ 50 | CC(C)(C)CC1=C(Cc2ccc(C(F)(F)F)cn2)C(=O)c2ccccc2C1=O [Example 28, 2-neopentyl-3-((5-(trifluoromethyl)pyridin-2-yl)methyl)naphthalene-1,4-dione] | 50 to 250 |  |  |
| 21.4 |  | CC(C)CC1=C(Cc2ccc(C(F)(F)F)cn2)C(=O)c2ccccc2C1=O [Example 29, 2-isobutyl-3-((5-(trifluoromethyl)pyridin-2-yl)methyl)naphthalene-1,4-dione] | < 50 |  |  |
| 17.4 |  | CC1(C2=C(Cc3ccc(C(F)(F)F)cn3)C(=O)c3ccccc3C2=O)CC1 [Example 31, 2-(1-methylcyclopropyl)-3-((5-(trifluoromethyl)pyridin-2-yl)methyl)naphthalene-1,4-dione] | < 50 |  |  |
|  | ≥ 50 | CC1=C(Cc2ncccc2C(F)(F)F)C(=O)c2ccccc2C1=O [Example 39, 2-methyl-3-((3-(trifluoromethyl)pyridin-2-yl)methyl)naphthalene-1,4-dione] | < 50 |  |  |
|  | ≥ 50 | CC1=C(Cc2ccc(C(=O)O)cn2)C(=O)c2ccccc2C1=O [Example 99, 6-((3-methyl-1,4-dioxo-1,4-dihydronaphthalen-2-yl)methyl)nicotinic acid] | > 1000 |  |  |
| 23 |  | CC1=C(Cc2ccc(C(N)=O)cn2)C(=O)c2ccccc2C1=O [Example 101, 6-((3-methyl-1,4-dioxo-1,4-dihydronaphthalen-2-yl)methyl)nicotinamide] | < 50 |  |  |
| 15.6 |  | CCCC1=C(Cc2ccc(C(F)(F)F)cn2)C(=O)c2ccccc2C1=O [Example 109, 2-propyl-3-((5-(trifluoromethyl)pyridin-2-yl)methyl)naphthalene-1,4-dione] | < 50 |  |  |
|  | ≥ 50 | CC1=C(Cc2ccc(C#N)cn2)C(=O)c2ccccc2C1=O [Example 123, 6-((3-methyl-1,4-dioxo-1,4-dihydronaphthalen-2-yl)methyl)nicotinonitrile] | < 50 |  |  |

From patent US20230002324A1, “NAPHTHOQUINONE DERIVATIVES FOR TREATMENT OF OXIDATIVE STRESS DISORDERS” (PTC THERAPEUTICS, INC., priority 2019, published 2023)
